Among the data in patent US6878722B2, “Substituted cycloalkyl P1′ hepatitis C virus inhibitors” (Bristol-Myers Squibb Company, priority 2002, dated 2005) are IC50 and EC50 values, retold here.

Assay [1] concerns the target T1, HCV NS3/4A protease complex (BMS strain, genotype 1a) (Hepatitis C virus genotype 1a, UniProt P27958, C1454S).
T1 construct: DNA encoding the recombinant HCV NS3/4A protease complex (amino acids 1027 to 1711) for these strains; inferred from the pET21b vector and Ni-NTA purification; made in house; host or cells: Escherichia coli BL21 (DE3), pET21b
Kind of assay: Recombinant HCV NS3/4A protease complex FRET peptide assay, BMS strain. Format: biochemical. Particulars: IC50 range, NS3/4A BMS Strain. The gist of the method: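 Recombinant NS3/4A complex (aa 1027–1711) with C-terminal three-lysine tail, C1711G and C1454S, expressed in E. coli BL21(DE3) and purified by Ni-NTA then Superdex-S200. Inhibition of the complex from each strain measured in vitro by FRET peptide cleavage.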

The subject of assay [2] is HCV replicon in Huh7 cells. The assay can be described thus: HCV replicon cell-based assay (FRET). Particulars: Hepatitis C virus. Summed up:
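Huh7 cells stably carrying a genotype 1b HCV replicon (IRES-neo-EMCV-IRES-NS3-NS5B) were treated with compound for 4 days at 37 °C in 0.5% DMSO final. Lysates containing 10 μM FRET peptide RET S1 were read kinetically at 340/490 nm to give NS3 protease activity, from which EC50 was derived.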

[3] abbreviates: Huh-7, HCV replicon, read-out: EC50 range.

Like-named read-outs stand apart in the source and are kept apart here.

T1 sequence (P27958 1658-1714, looked up, stated change not applied): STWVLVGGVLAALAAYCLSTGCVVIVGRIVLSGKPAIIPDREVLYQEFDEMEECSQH
T1 sequence (P27958 1027-1657, looked up, stated change not applied): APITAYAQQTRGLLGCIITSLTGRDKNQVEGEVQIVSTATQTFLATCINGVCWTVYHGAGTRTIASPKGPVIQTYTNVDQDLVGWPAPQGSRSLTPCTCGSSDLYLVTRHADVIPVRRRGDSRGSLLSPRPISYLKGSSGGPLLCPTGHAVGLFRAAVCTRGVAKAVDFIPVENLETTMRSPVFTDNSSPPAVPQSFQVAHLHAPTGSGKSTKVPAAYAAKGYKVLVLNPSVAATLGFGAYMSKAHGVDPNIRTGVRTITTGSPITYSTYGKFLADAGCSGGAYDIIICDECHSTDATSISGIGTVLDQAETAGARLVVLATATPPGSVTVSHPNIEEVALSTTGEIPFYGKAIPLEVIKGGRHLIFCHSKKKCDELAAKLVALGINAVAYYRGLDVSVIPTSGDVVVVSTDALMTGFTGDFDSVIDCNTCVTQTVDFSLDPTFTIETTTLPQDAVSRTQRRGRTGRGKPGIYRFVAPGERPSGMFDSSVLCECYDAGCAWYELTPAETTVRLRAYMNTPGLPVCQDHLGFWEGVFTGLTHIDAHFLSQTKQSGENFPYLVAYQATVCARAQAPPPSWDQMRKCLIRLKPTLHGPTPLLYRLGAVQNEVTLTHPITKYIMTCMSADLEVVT

As for `C=CCC1(S(=O)(=O)NC(=O)[C@@]2(NC(=O)[C@@H]3C[C@@H](Oc4ccnc5cc(Cl)ccc45)CN3C(=O)[C@@H](NC(=O)OC3CCCC3)C(C)(C)C)C[C@H]2C=C)CC1` [Compound 67, {1-[2-[1-(1-Allyl-cyclopropanesulfonylaminocarbonyl)-2-vinyl-cyclopropylcarbamoyl]-4-(7-chloro-quinolin-4-yloxy)-pyrrolidine-1-carbonyl]-2,2-dimethyl-propyl}-carbamic acid cyclopentyl ester], in assay [1], the IC50 (usually the point on the concentration scale where inhibition reaches its midpoint) was 50 to 500 nM. Also, the concentration giving a half-maximal response (EC50) (in general, the concentration giving half of the maximal effect) in assay [2] (setting [3]) lay in the range of 50 to 500 nM.

For the compound `COc1ccc2c(O[C@@H]3C[C@@H](C(=O)NC4(C(=O)NS(=O)(=O)C5(Cc6ccccc6)CC5)CC4)N(C(=O)[C@@H](NC(=O)OC(C)(C)C)C(C)(C)C)C3)cc(-c3ccccc3)nc2c1` [Compound 74, {1-[2-[1-(1-Benzyl-cyclopropanesulfonylaminocarbonyl)-cyclopropylcarbamoyl]-4-(7-methoxy-2-phenyl-quinolin-4-yloxy)-pyrrolidine-1-carbonyl]-2,2-dimethyl-propyl}-carbamic acid tert-butyl ester], the 50% inhibitory concentration (IC50) in assay [1] fell in the range of 500 to 5000 nM. Moreover, in assay [2] (setting [3]), the EC50 is 5000 to 50000 nM.

With `COc1ccc2c(O[C@@H]3C[C@@H](C(=O)N[C@]4(C(=O)NS(=O)(=O)C5(CC6CC6)CC5)CC4C4CC4)N(C(=O)[C@@H](NC(=O)OC(C)(C)C)C(C)(C)C)C3)cc(-c3ccccc3)nc2c1` (some centres unmarked) [Compound 205], in assay [1], the half-inhibitory concentration (IC50) is under 50 nM. Moreover, the EC50 in assay [2] (setting [3]) lay in the range of 50 to 500 nM.

As to `C=C[C@@H]1C[C@]1(NC(=O)[C@@H]1C[C@@H](Oc2cc(-c3csc(NC(C)C)n3)nc3cc(OC)ccc23)CN1C(=O)[C@@H](NC(=O)OC(C)(C)C)C(C)(C)C)C(=O)NS(=O)(=O)C1(CC2CC2)CC1` [Compound 80, (1-{2-[1-(1-Cyclopropylmethyl-cyclopropanesulfonylaminocarbonyl)-2-vinyl-cyclopropylcarbamoyl]-4-[2-(2-isopropylamino-thiazol-4-yl)-7-methoxy-quinolin-4-yloxy]-pyrrolidine-1-carbonyl}-2,2-dimethyl-propyl)-carbamic acid tert-butyl ester], in assay [1], the IC50 was under 50 nM. The 50% effective concentration (EC50) in assay [2] (setting [3]) was in the range of 50 to 500 nM.

`C=C[C@@H]1C[C@]1(NC(=O)[C@@H]1C[C@@H](Oc2cc(-c3ccccc3)nc3cc(OC)ccc23)CN1C(=O)[C@@H](NC(=O)Oc1ccc(OC)cc1)C(C)(C)C)C(=O)NS(=O)(=O)C1(Cc2ccccc2)CC1` [Compound 103]: in assay [1], the IC50 fell in the range of 50 to 500 nM. Moreover, the half-maximal effective concentration (EC50) in assay [2] (setting [3]) was 50 to 500 nM.

For `C=C[C@@H]1C[C@]1(NC(=O)[C@@H]1C[C@@H](Oc2cc(C3CC3)nc3cc(OC)ccc23)CN1C(=O)[C@@H](NC(=O)OC(C)(C)C)C(C)(C)C)C(=O)NS(=O)(=O)C1(Cc2ccccc2)CC1` [Compound 68, BOCNH—P3(L-t-BuGly)-P2[(4R)-(2-cyclopropyl-7-methoxyquinoline-4-oxo)-S-proline]-P1(1R,2S Vinyl Acca)-CONHSO2(1-benzylclopropan-1-yl)], in assay [1], the IC50 is under 50 nM. Further, in assay [2] (Huh-7, read-out: EC50 range), the half-maximal effective concentration (EC50) lay within 50 to 500 nM.

Regarding `C=C[C@@H]1C[C@]1(NC(=O)[C@@H]1C[C@@H](Oc2cc(-c3ccccc3)nc3cc(OC)ccc23)CN1C(=O)[C@@H](NC(=O)OC(C)(C)C)C(C)(C)C)C(=O)NS(=O)(=O)C1(Cl)CC1` [Compound 38, {1-[2-[1-(1-Chloro-cyclopropanesulfonylaminocarbonyl)-2-vinyl-cyclopropylcarbamoyl]-4-(7-methoxy-2-phenyl-quinolin-4-yloxy)-pyrrolidine-1-carbonyl]-2,2-dimethyl-propyl}-carbamic acid tert-butyl ester], the IC50 in assay [1] is under 50 nM. Moreover, the EC50 in assay [2] (setting [3]) was under 50 nM.

Turning to `C=C[C@@H]1C[C@]1(NC(=O)[C@@H]1C[C@@H](Oc2cc(-c3ccccc3)nc3cc(OC)ccc23)CN1C(=O)[C@@H](NC(=O)OC(C)(C)C)C(C)(C)C)C(=O)NS(=O)(=O)C1(CCOCc2ccccc2)CC1` [Compound 36, {1-[2-{1-[1-(2-Benzyloxy-ethyl)-cyclopropanesulfonylaminocarbonyl]-2-vinyl-cyclopropylcarbamoyl}-4-(7-methoxy-2-phenyl-quinolin-4-yloxy)-pyrrolidine-1-carbonyl]-2,2-dimethyl-propyl}-carbamic acid tert-butyl ester], the IC50 in assay [1] is under 50 nM. For the same compound, the 50% effective concentration (EC50) in assay [2] (setting [3]) was under 50 nM.

As to `C=CC1C[C@]1(NC(=O)[C@@H]1C[C@@H](Oc2cc(-c3ccccc3)nc3cc(OC)ccc23)CN1C(=O)[C@@H](NC(=O)OC(C)(C)C)C(C)(C)C)C(=O)NS(=O)(=O)C1(C(=O)NCCC)CC1` (stereo in doubt) [Compound 9, (1-{4-(7-Methoxy-2-phenylquinolin-4-yloxy)-2-[1-(1-propylcarbamoyl-cyclopropanesulfonylaminocarbonyl)-2-vinylcyclopropylcarbamoyl]pyrrolidine-1-carbonyl}-2,2-dimethyl-propyl)carbamic acid tert-butyl ester], the concentration for half-maximal inhibition (IC50) in assay [1] was under 50 nM. The 50% effective concentration (EC50) in assay [2] (setting [3]) was under 50 nM.

On to `C=C[C@@H]1C[C@]1(NC(=O)[C@@H]1C[C@@H](Oc2cc(-c3ccccc3)nc3cc(OC)ccc23)CN1C(=O)[C@@H](NC(=O)OC(C)(C)C)C(C)(C)C)C(=O)NS(=O)(=O)C1(Cc2ccc(OC)cc2)CC1` [Compound 42, {1-[2-{1-[1-(4-Methoxy-benzyl)-cyclopropanesulfonylaminocarbonyl]-2-vinyl-cyclopropylcarbamoyl}-4-(7-methoxy-2-phenyl-quinolin-4-yloxy)-pyrrolidine-1-carbonyl]-2,2-dimethyl-propyl}-carbamic acid tert-butyl ester], for which, in assay [1], the IC50 was 50 to 500 nM. For the same compound, in assay [2] (setting [3]), the EC50 lay within 50 to 500 nM.

As for `COc1ccc2c(O[C@@H]3C[C@@H](C(=O)NC4(C(=O)NS(=O)(=O)C5(Cc6ccccc6)CC5)CC45CC5)N(C(=O)[C@@H](NC(=O)OC(C)(C)C)C(C)(C)C)C3)cc(-c3ccccc3)nc2c1` (mixture of isomers) [Compound 201, {1-[2-[1-(1-Benzyl-cyclopropanesulfonylaminocarbonyl)-spiro[2.2]pent-1-ylcarbamoyl]-4-(7-methoxy-2-phenyl-quinolin-4-yloxy)-pyrrolidine-1-carbonyl]-2,2-dimethyl-propyl}-carbamic acid tert-butyl ester], the 50% inhibitory concentration (IC50) in assay [1] lay within 500 to 5000 nM. Also, the EC50 in assay [2] (setting [3]) lay within 5000 to 50000 nM.

In the case of `C=C[C@@H]1C[C@]1(NC(=O)[C@@H]1C[C@@H](Oc2cc(-c3ccccc3)nc3cc(OC)ccc23)CN1C(=O)[C@@H](NC(=O)NC(C)(C)C)C(C)(C)C)C(=O)NS(=O)(=O)C1(Cc2ccccc2)CC1` [Compound 62, 1-[2-(3-tert-Butyl-ureido)-3,3-dimethyl-butyryl]-4-(7-methoxy-2-phenyl-quinolin-4-yloxy)-pyrrolidine-2-carboxylic acid [1-(1-benzylcyclopropanesulfonylaminocarbonyl)-2-vinyl-cyclopropyl]-amide], the concentration for half-maximal inhibition (IC50) in assay [1] is under 50 nM. For the same compound, the concentration giving a half-maximal response (EC50) in assay [2] (setting [3]) fell in the range of 50 to 500 nM.

For the compound `C=CC1C[C@]1(NC(=O)[C@@H]1C[C@@H](Oc2cc(-c3ccccc3)nc3cc(OC)ccc23)CN1C(=O)[C@@H](NC(=O)OC(C)(C)C)C(C)(C)C)C(=O)NS(=O)(=O)C1(C(=O)Nc2ccccc2)CC1` (stereo in doubt) [Compound 6, (1-{4-(7-Methoxy-2-phenyl-quinolin-4-yloxy)-2-[1-(1-phenylcarbamoyl-cyclopropane-sulfonylaminocarbonyl)-2-vinylcyclopropylcarbamoyl]-pyrrolidine-1-carbonyl}-2,2-dimethyl-propyl)carbamic acid tert-butyl ester], the half-maximal inhibitory concentration (IC50) in assay [1] is under 50 nM. Besides, in assay [2] (setting [3]), the EC50 was in the range of 50 to 500 nM.
